In ChEMBL document CHEMBL1811878, “Heteroatom-substituted analogues of orphan nuclear receptor small heterodimer partner ligand and apoptosis inducer (E)-4-[3-(1-Adamantyl)-4-hydroxyphenyl]-3-chlorocinnamic acid” (J Med Chem, 2011) one finds Activity, inhibition of growth and IC50 data, which are given here for 17 molecules.

SMILES strings stand for the structures. pIC50: −log10 of the molar value. The source made the active and inactive calls. The calls are words filed in the database; no cut-off is given here.

Assay [1] concerns A549. Put plainly: Induction of apoptosis in human A549 cells assessed as decrease in ATP level at 10 uM after 72 hrs by luminescence assay. Format: functional, cell-based.
For assay [2], the system named is PC-3. In words: Induction of apoptosis in human PC3 cells assessed as decrease in ATP level at 10 uM after 72 hrs by luminescence assay. Format: functional, cell-based.
The subject of assay [3] is A549. Put plainly: Induction of apoptosis in human A549 cells assessed as decrease in ATP level after 72 hrs by luminescence assay. The class given is functional, cell-based.
Assay [4] relates to PC-3. In words: Induction of apoptosis in human PC3 cells assessed as decrease in ATP level after 72 hrs by luminescence assay. Format: functional, cell-based.
Assay [5] relates to HT-29. Put plainly: Induction of apoptosis in human HT-29 cells assessed as decrease in ATP level after 72 hrs by luminescence assay. Format: functional, cell-based.
For assay [6], the system named is KG-1. Put plainly: Growth inhibition in human KG1 cells expressing p53 gene at 1 uM after 48 hrs by MTT assay. The class given is functional. To be noted: KG-1, 48 h, read-out: GI. A general note: Tetrazolium assays rely on reduction of a dye to a coloured formazan, in cell work by metabolically active cells.
For assay [7], the system named is KG-1. In words: Growth inhibition in human KG1 cells expressing p53 gene at 5 uM after 48 hrs by MTT assay. The conditions noted are these: KG-1, 48 h, read-out: GI. Format: functional.
Assay [8] relates to KG-1. Put plainly: Induction of apoptosis in human KG1 cells expressing p53 gene assessed as DNA fragmentation at 1 uM after 48 hrs by acridine orange staining method. The class given is functional.
Assay [9] deals with KG-1. In words: Induction of apoptosis in human KG1 cells assessed as DNA fragmentation at 5 uM after 48 hrs by acridine orange staining method. The class given is functional.
Assay [10] has as its system HT-29. In words: Induction of apoptosis in human HT-29 cells assessed as decrease in ATP level at 10 uM after 72 hrs by luminescence assay. The arrangement: scale not given: the % may be the effect or the level left. Format: functional.
The test system of assay [11] is A549. In words: Induction of apoptosis in human A549 cells assessed as decrease in ATP level at 5 uM after 72 hrs by luminescence assay. The arrangement: scale not given: the % may be the effect or the level left. The class given is functional.
In assay [12] the test system is PC-3. In words: Induction of apoptosis in human PC3 cells assessed as decrease in ATP level at 5 uM after 72 hrs by luminescence assay. Format: functional. Further details: scale not given: the % may be the effect or the level left.
Assay [13] relates to HT-29. Put plainly: Induction of apoptosis in human HT-29 cells assessed as decrease in ATP level at 5 uM after 72 hrs by luminescence assay. Format: functional. The arrangement: scale not given: the % may be the effect or the level left.
The nature of assay [14]: Induction of apoptosis in mouse MMTV-Wnt-1 cells assessed as cell viability after 72 hrs by DAPI staining based cell counting. Format: functional.
Assay [15] is described as follows: Induction of apoptosis in retinoid-resistant p53 null human HL60R cells assessed as DNA fragmentation at 0.1 uM after 24 hrs by acridine orange staining method. The class given is functional.
Assay [16] can be described thus: Induction of apoptosis in retinoid-resistant p53 null human HL60R cells assessed as DNA fragmentation at 1 uM after 24 hrs by acridine orange staining method. Format: functional.

For the molecule `CCOC(=O)/C=C/c1ccc(-c2ccc(O)c(C34CC5CC(CC(C5)C3)C4)c2)nc1`, the result in assay [1] and in assay [2] was Active. Besides, the Activity entry was “Dose-dependent effect” in assay [3]; “Dose-dependent effect” in assay [4]; “Dose-dependent effect” in assay [5]; 0% in assay [8]; 0% in [9]. Further, the inhibition of growth at 1 µM in assay [6] amounted to 0%. The inhibition of growth at 5 µM in [7] was 45%.

For `O=C(O)CNc1cnc(-c2ccc(O)c(C34CC5CC(CC(C5)C3)C4)c2)nc1`, the Activity entry in assay [3] was “Dose-dependent effect”; in assay [4] it was “Dose-dependent effect”; in assay [5], “Dose-dependent effect”; in assay [8], 0%; in [9], 0%. Moreover, in assay [6], the inhibition of growth at 1 µM amounted to 0%. Further, in assay [7], the inhibition of growth at 5 µM was 0%.

Turning to `O=C(O)COc1ccc(-c2ccc(O)c(C34CC5CC(CC(C5)C3)C4)c2)c(Cl)c1`, the result in assay [1] was inactive. In addition, the Activity entry in [3] was “Dose-dependent effect”; in [4], “Dose-dependent effect”; in [5], “Dose-dependent effect”; in assay [8] it was 5%; in [9], 25%. Also, in [6], the inhibition of growth at 1 µM was 34%. For the same molecule, the inhibition of growth at 5 µM in assay [7] turned out to be 75%.

Turning to `O=C(O)CNc1ccc(-c2ccc(O)c(C34CC5CC(CC(C5)C3)C4)c2)c(Cl)c1`, the Activity entry in assay [10] was “>=40%”; in assay [3] it was “Dose-dependent effect”; in assay [4], “Dose-dependent effect”; in assay [5] it was “Dose-dependent effect”; in assay [8], 18%; in assay [9], 35%. Besides, the result in assay [1] was inactive. For the same molecule, in assay [6], the inhibition of growth at 1 µM was 30%. Further, in [7], the inhibition of growth at 5 µM amounted to 45%.

Take `CC(=O)Oc1ccc(-c2ccc(/C=C/C(=O)O)cn2)cc1C12CC3CC(CC(C3)C1)C2`: the Activity result in assay [3] was “Dose-dependent effect”; in assay [4], “Dose-dependent effect”; in [5], “Dose-dependent effect”; in assay [8], 52%; in assay [9], 67%. Moreover, the inhibition of growth at 1 µM in assay [6] is 46%. In addition, the inhibition of growth at 5 µM in assay [7] was found to be 54%.

As for `O=C(O)CSc1ccc(-c2ccc(O)c(C34CC5CC(CC(C5)C3)C4)c2)c(Cl)c1`, the Activity entry in assay [3] was “Dose-dependent effect”; in [4], “Dose-dependent effect”; in assay [5] it was “Dose-dependent effect”; in assay [8], 2%; in assay [9], 5%. Further, the inhibition of growth at 1 µM in [6] came out at 7%. Further, the inhibition of growth at 5 µM in assay [7] came out at 11%.

Take `O=C(O)/C=C/c1ccc(-c2ccc(O)c(C34CC5CC(CC(C5)C3)C4)c2)cn1`: the result in assay [1] and in assay [2] was Active. Moreover, the Activity entry is “Dose-dependent effect” in assay [3]; “Dose-dependent effect” in assay [4]; “Dose-dependent effect” in assay [5]; 10% in assay [11]; above 60% in assay [12]; 10% in assay [13]. The figures for the Activity in assay [8] and in assay [9] were 36% and 52%, respectively. Besides, the inhibition of growth at 1 µM in [6] is 48%. Moreover, in assay [7], the inhibition of growth at 5 µM is 58%.

As to `O=C(O)/C=C/c1ccc(-c2ccc(O)c(C34CC5CC(CC(C5)C3)C4)c2)nn1`, the outcome in assay [1] was inactive. Besides, the outcome in [2] was Active. In addition, the Activity result in assay [3] was “Dose-dependent effect”; in [4] it was “Dose-dependent effect”; in assay [5], “Dose-dependent effect”; in [11], “<=5%”; in assay [12], above 60%; in assay [13] it was “<=5%”. Further, the figures for the Activity in assay [8] and in assay [9] were 48% and 59%, respectively. Further, in assay [6], the inhibition of growth at 1 µM was 70%. Besides, the inhibition of growth at 5 µM in [7] was found to be 80%.

For the molecule `O=C(O)CS(=O)(=O)c1ccc(-c2ccc(O)c(C34CC5CC(CC(C5)C3)C4)c2)c(Cl)c1`, the Activity entry in assay [3] is “Dose-dependent effect”; in assay [4] it was “Dose-dependent effect”; in [5], “Dose-dependent effect”; in assay [8] it was 2%; in assay [9], 6%. Besides, the inhibition of growth at 1 µM in assay [6] is 7%. Also, the inhibition of growth at 5 µM in assay [7] was determined as 13%.

`O=C(O)CC(=O)N1CCN(c2ccc(O)c(C34CC5CC(CC(C5)C3)C4)c2)C(=O)C1`: the Activity entry in [3] was “Dose-dependent effect”; in [4], “Dose-dependent effect”; in assay [5] it was “Dose-dependent effect”; in assay [8] it was 1%; in [9], 2%. Further, in assay [6], the inhibition of growth at 1 µM was -2%. The inhibition of growth at 5 µM in assay [7] is -5%.

`O=C(O)c1cc2ccc(-c3ccc(O)c(C45CC6CC(CC(C6)C4)C5)c3)cc2[nH]1`: the Activity entry in [3] was “Dose-dependent effect”; in [4] it was “Dose-dependent effect”; in assay [5], “Dose-dependent effect”; in assay [8] it was 1%; in assay [9] it was 3%. Moreover, the inhibition of growth at 1 µM in assay [6] was 1%. Besides, in [7], the inhibition of growth at 5 µM is 8%.

In the case of `O=C(O)/C=C/c1cnc(-c2ccc(O)c(C34CC5CC(CC(C5)C3)C4)c2)cn1`, the pIC50 – broadly, −log10 of the IC50, conventionally taken in molar units – in assay [14] is 6.50. In assay [10], the result was inactive. Further, in assay [2], the outcome was Active. The Activity entry is “Dose-dependent effect” in [3]; “Dose-dependent effect” in [4]; “Dose-dependent effect” in assay [5]; 39% in assay [8]; 50% in assay [9]. The inhibition of growth at 1 µM in [6] stood at 44%. Moreover, the inhibition of growth at 5 µM in assay [7] was 61%.

Regarding `O=C(O)CCc1ccc(-c2ccc(O)c(C34CC5CC(CC(C5)C3)C4)c2)c(Cl)c1`, the Activity entry in assay [3] was “Dose-dependent effect”; in assay [4], “Dose-dependent effect”; in [5], “Dose-dependent effect”; in assay [8], 0%; in assay [9], 1%. Also, in assay [6], the inhibition of growth at 1 µM amounted to 0%. Also, the inhibition of growth at 5 µM in assay [7] is 0%.

`O=C(O)CCN1CCN(c2ccc(O)c(C34CC5CC(CC(C5)C3)C4)c2)CC1`: in [1], the outcome was inactive. The outcome in [2] was Active. The Activity result in assay [3] was “Dose-dependent effect”; in assay [4] it was “Dose-dependent effect”; in [5], “Dose-dependent effect”; in assay [8] it was 1%; in [9] it was 1%. In addition, in [6], the inhibition of growth at 1 µM was -3%. Moreover, the inhibition of growth at 5 µM in [7] was 5%.

Take `O=C(O)c1ccc2c(Cl)c(-c3ccc(O)c(C45CC6CC(CC(C6)C4)C5)c3)ccc2c1`: the values for the Activity in assay [15] and in [16] were 62% and 94%, respectively.

Take `O=C(O)/C=C/c1cnc(-c2ccc(O)c(C34CC5CC(CC(C5)C3)C4)c2)c(Cl)c1`: the result in assay [10] was inactive. Besides, the result in [1] and in assay [2] was Active. Also, the Activity entry was “Dose-dependent effect” in assay [3]; “Dose-dependent effect” in [4]; “Dose-dependent effect” in [5]; 56% in [8]; 65% in assay [9]. In addition, the inhibition of growth at 1 µM in assay [6] was found to be 41%. Moreover, in [7], the inhibition of growth at 5 µM was found to be 47%.

Take `O=C(O)/C=C/C1CCN(c2ccc(O)c(C34CC5CC(CC(C5)C3)C4)c2)CC1`: the Activity result in assay [3] is “Dose-dependent effect”; in assay [4] it was “Dose-dependent effect”; in assay [5], “Dose-dependent effect”; in [8], 1%; in [9], 1%. Besides, the inhibition of growth at 1 µM in assay [6] is 1%. The inhibition of growth at 5 µM in assay [7] was found to be 2%.
